# Experimental data published in EP2607478A1, “Phenanthroline treated MSC” (Universiteit Twente, priority 2011, dated 2013).
# System: MSCs
# Assay: Whole genome expression analysis (Illumina microarray) of treated MSCs
# Format: cell-based, Human
# Conditions: DFO versus Bas
# Description: MSCs were seeded in T25 flasks at 5000 cells/cm^2 and allowed to attach overnight in proliferation medium. […] After 48 hours, RNA was isolated as described above. From 500 ng of RNA, cRNA was synthesized using the Illumina TotalPrep RNA amplification Kit (Ambion), according to the manufacturer's protocol and the quality of RNA and cRNA was verified on a Bioanalyzer 2100 (Agilent). Microarrays were performed using Illumina HT-12 v4 expression Beadchips, according to the manufacturer's protocol. Briefly, 750 ng of cRNA was hybridized on the array overnight after which the array was washed and blocked. Then, by addition of streptavidin Cy-3 a fluorescent signal was developed. Arrays were scanned on an Illumina iScan reader and raw intensity values were background corrected in GenomeStudio (Illumina). Further data processing and statistical testing were performed with R and Bioconductor statistical software (www.bioconductor.org), using package lumi. Raw intensity values were transformed using variance stabilization and a quantile normalization was performed. A linear modelling approach with empirical Bayesian methods, as implemented in Limma package (54), was applied for differential expression analysis of the resulting probe-level expression values. A gene list, containing only those genes with an absolute 1.5-fold change between different treatments, was uploaded to Ingenuity Pathway Analysis (IPA) software and used for core analysis. Pathways or networks with a p-value of 0.05 were considered statistically significant.
structure (smiles),measurement,setting,value
"CC(=O)N(O)CCCCCNC(=O)CCC(=O)N(O)CCCCCNC(=O)CCC(=O)N(O)CCCCCN [DFO, reference compound]",logFC(D142_ DFO - D142_BAS) KCNK2,ProbeID ILMN_1765990,"-2,07"
same,logFC(D142_ DFO - D142_BAS) C10orf10,ProbeID ILMN_1767556,"3,15"
same,logFC(D142_ DFO - D142_BAS) BTG2,ProbeID ILMN_1770085,"2,57"
same,logFC(D142_ DFO - D142_BAS) KRT34,ProbeID ILMN_1770228,"3,81"
same,logFC(D142_ DFO - D142_BAS) CNN2,ProbeID ILMN_1770290,"-2,29"
same,logFC(D142_ DFO - D142_BAS) ANGPTL2,ProbeID ILMN_1772612,"-2,31"
same,logFC(D142_ DFO - D142_BAS) ZNF395,ProbeID ILMN_1772876,"2,75"
same,logFC(D142_ DFO - D142_BAS) GAS1,ProbeID ILMN_1772910,"-3,12"
same,logFC(D142_ DFO - D142_BAS) DKK1,ProbeID ILMN_1773337,"2,79"
same,logFC(D142_ DFO - D142_BAS) FBLN2,ProbeID ILMN_1774602,"-2,23"
same,logFC(D142_ DFO - D142_BAS) SLC2A3,ProbeID ILMN_1775708,"2,53"
same,logFC(D142_ DFO - D142_BAS) KCTD11,ProbeID ILMN_1777513,"2,12"
same,logFC(D142_ DFO - D142_BAS) LOC644774,ProbeID ILMN_1779258,"2,61"
same,logFC(D142_ DFO - D142_BAS) CPA4,ProbeID ILMN_1784294,"5,59"
same,logFC(D142_ DFO - D142_BAS) SPOCD1,ProbeID ILMN_1784948,"-2,53"
same,logFC(D142_ DFO - D142_BAS) PRKD1,ProbeID ILMN_1785891,"-2,05"
same,logFC(D142_ DFO - D142_BAS) UHRF1,ProbeID ILMN_1786065,"-2,34"
same,logFC(D142_ DFO - D142_BAS) CDKN1A,ProbeID ILMN_1787212,"2,78"
same,logFC(D142_ DFO - D142_BAS) TRIB3,ProbeID ILMN_1787815,"3,16"
same,logFC(D142_ DFO - D142_BAS) COL11A1,ProbeID ILMN_1789507,"-2,55"
same,logFC(D142_ DFO - D142_BAS) GBE1,ProbeID ILMN_1789702,"2,29"
same,logFC(D142_ DFO - D142_BAS) PRRX2,ProbeID ILMN_1790338,"-2,49"
same,logFC(D142_ DFO - D142_BAS) LUM,ProbeID ILMN_1790529,"-3,27"
same,logFC(D142_ DFO - D142_BAS) CXCL12,ProbeID ILMN_1791447,"-2,57"
same,logFC(D142_ DFO - D142_BAS) DPYSL4,ProbeID ILMN_1792356,"3,05"
same,logFC(D142_ DFO - D142_BAS) TMEM158,ProbeID ILMN_1792455,"2,58"
same,logFC(D142_ DFO - D142_BAS) SERTAD1,ProbeID ILMN_1794017,"2,25"
same,logFC(D142_ DFO - D142_BAS) CAMK2N1,ProbeID ILMN_1794863,"2,65"
same,logFC(D142_ DFO - D142_BAS) PTP4A2,ProbeID ILMN_1795697,"2,22"
same,logFC(D142_ DFO - D142_BAS) ASNS,ProbeID ILMN_1796417,"2,93"
same,logFC(D142_ DFO - D142_BAS) HMGCS1,ProbeID ILMN_1797728,"-2,09"
same,logFC(D142_ DFO - D142_BAS) PTPRF,ProbeID ILMN_1798081,"2,28"
same,logFC(D142_ DFO - D142_BAS) AK3L1,ProbeID ILMN_1798249,"2,66"
same,logFC(D142_ DFO - D142_BAS) PLIN2,ProbeID ILMN_1801077,"2,94"
same,logFC(D142_ DFO - D142_BAS) FAM162A,ProbeID ILMN_1803647,"2,50"
same,logFC(D142_ DFO - D142_BAS) CXCL12,ProbeID ILMN_1803825,"-2,19"
same,logFC(D142_ DFO - D142_BAS) VEGFA,ProbeID ILMN_1803882,"3,15"
same,logFC(D142_ DFO - D142_BAS) FMO3,ProbeID ILMN_1808657,"-2,46"
same,logFC(D142_ DFO - D142_BAS) PGF,ProbeID ILMN_1809813,"2,55"
same,logFC(D142_ DFO - D142_BAS) NDRG1,ProbeID ILMN_1809931,"3,57"
same,logFC(D142_ DFO - D142_BAS) SFRP4,ProbeID ILMN_1810172,"-2,03"
same,logFC(D142_ DFO - D142_BAS) FAM129A,ProbeID ILMN_1810725,"2,88"
same,logFC(D142_ DFO - D142_BAS) PDE5A,ProbeID ILMN_1810836,"-2,08"
same,logFC(D142_ DFO - D142_BAS) LOC402221,ProbeID ILMN_1811909,"-2,22"
same,logFC(D142_ DFO - D142_BAS) FAM20A,ProbeID ILMN_1812091,"-2,11"
same,logFC(D142_ DFO - D142_BAS) SOX18,ProbeID ILMN_1812968,"-2,09"
same,logFC(D142_ DFO - D142_BAS) FKSG30,ProbeID ILMN_1814998,"-2,25"
same,logFC(D142_ DFO - D142_BAS),ProbeID ILMN_1843198 (no gene name printed),"3,25"
same,logFC(D142_ DFO - D142_BAS),ProbeID ILMN_1890614 (no gene name printed),"3,41"
same,logFC(D142_ DFO - D142_BAS) SNORD13,ProbeID ILMN_1892403,"2,51"
same,logFC(D142_ DFO - D142_BAS) GADD45A,ProbeID ILMN_2052208,"2,60"
same,logFC(D142_ DFO - D142_BAS) LDLR,ProbeID ILMN_2053415,"-2,03"
same,logFC(D142_ DFO - D142_BAS) PTGS2,ProbeID ILMN_2054297,"2,25"
same,logFC(D142_ DFO - D142_BAS) GAS1,ProbeID ILMN_2062701,"-2,07"
same,logFC(D142_ DFO - D142_BAS) PMAIP1,ProbeID ILMN_2098446,"2,11"
same,logFC(D142_ DFO - D142_BAS) GOLGA8B,ProbeID ILMN_2103547,"2,12"
same,logFC(D142_ DFO - D142_BAS) EEF1A2,ProbeID ILMN_2108735,"2,72"
same,logFC(D142_ DFO - D142_BAS) CTHRC1,ProbeID ILMN_2117508,"-2,46"
same,logFC(D142_ DFO - D142_BAS) HBEGF,ProbeID ILMN_2121408,"2,13"
same,logFC(D142_ DFO - D142_BAS) IGFBP5,ProbeID ILMN_2132982,"2,53"
same,logFC(D142_ DFO - D142_BAS) PLIN2,ProbeID ILMN_2138765,"2,74"
same,logFC(D142_ DFO - D142_BAS) HIST2H2AA3,ProbeID ILMN_2144426,"2,07"
same,logFC(D142_ DFO - D142_BAS) GBP1,ProbeID ILMN_2148785,"-2,41"
same,logFC(D142_ DFO - D142_BAS) SERPINB2,ProbeID ILMN_2150851,"3,06"
same,logFC(D142_ DFO - D142_BAS) SERPINB2,ProbeID ILMN_2150856,"3,04"
same,logFC(D142_ DFO - D142_BAS) ALDH1B1,ProbeID ILMN_2150894,"-2,55"
same,logFC(D142_ DFO - D142_BAS) LUM,ProbeID ILMN_2167805,"-2,01"
same,logFC(D142_ DFO - D142_BAS) PFKFB3,ProbeID ILMN_2186061,"4,03"
same,logFC(D142_ DFO - D142_BAS) RRAD,ProbeID ILMN_2186137,"3,12"
same,logFC(D142_ DFO - D142_BAS) GDF15,ProbeID ILMN_2188862,"6,31"
same,logFC(D142_ DFO - D142_BAS) HSPB7,ProbeID ILMN_2200836,"-2,12"
same,logFC(D142_ DFO - D142_BAS) TP53INP1,ProbeID ILMN_2214197,"2,62"
same,logFC(D142_ DFO - D142_BAS) PGK1,ProbeID ILMN_2216852,"2,75"
same,logFC(D142_ DFO - D142_BAS) KIFC1,ProbeID ILMN_2222008,"-2,05"
same,logFC(D142_ DFO - D142_BAS) BEX1,ProbeID ILMN_2234697,"-3,45"
same,logFC(D142_ DFO - D142_BAS) LEPR,ProbeID ILMN_2234956,"-2,33"
same,logFC(D142_ DFO - D142_BAS) UBE2C,ProbeID ILMN_2301083,"-2,01"
same,logFC(D142_ DFO - D142_BAS) VCAM1,ProbeID ILMN_2307903,"-3,16"
same,logFC(D142_ DFO - D142_BAS) MAFF,ProbeID ILMN_2322375,"2,07"
same,logFC(D142_ DFO - D142_BAS) PORCN,ProbeID ILMN_2337058,"2,69"
same,logFC(D142_ DFO - D142_BAS) AK3L1,ProbeID ILMN_2338038,"2,28"
same,logFC(D142_ DFO - D142_BAS) FMO3,ProbeID ILMN_2344283,"-2,30"
same,logFC(D142_ DFO - D142_BAS) MKNK2,ProbeID ILMN_2347068,"2,45"
same,logFC(D142_ DFO - D142_BAS) BIRC5,ProbeID ILMN_2349459,"-2,14"
same,logFC(D142_ DFO - D142_BAS) VLDLR,ProbeID ILMN_2361862,"3,17"
same,logFC(D142_ DFO - D142_BAS) ATF3,ProbeID ILMN_2374865,"3,23"
same,logFC(D142_ DFO - D142_BAS) VEGFA,ProbeID ILMN_2375879,"3,40"
same,logFC(D142_ DFO - D142_BAS) KCNK2,ProbeID ILMN_2376953,"-2,07"
same,logFC(D142_ DFO - D142_BAS) ANGPTL4,ProbeID ILMN_2386444,"2,64"
same,logFC(D142_ DFO - D142_BAS) IGFBP1,ProbeID ILMN_2387385,"2,45"
same,logFC(D142_ DFO - D142_BAS) MTHFD2,ProbeID ILMN_2405521,"2,84"
same,logFC(D142_ DFO - D142_BAS) PODXL,ProbeID ILMN_2413158,"2,92"
same,logFC(D142_ DFO - D142_BAS) LOC100133609,ProbeID ILMN_3237270,"2,49"
same,logFC(D142_ DFO - D142_BAS) BEND5,ProbeID ILMN_3237448,"2,61"
same,logFC(D142_ DFO - D142_BAS) HIST2H2AA4,ProbeID ILMN_3242900,"2,11"
same,logFC(D142_ DFO - D142_BAS) LOC644350,ProbeID ILMN_3248701,"2,60"
same,logFC(D142_ DFO - D142_BAS) LOC728934,ProbeID ILMN_3248758,"2,47"
same,logFC(D142_ DFO - D142_BAS) LOC644237,ProbeID ILMN_3283772,"2,17"
same,logFC(D142_ DFO - D142_BAS) LOC729779,ProbeID ILMN_3305273,"3,12"
